Drawing on PubChem BioAssay (NCI), this text covers GI50 and TGI for eleven compounds.

Holding throughout (assay): growth of human tumour cells (NCI), 48 h
Test [1] deals with M14 melanoma.
The test system of test [2] is OVCAR-8 ovarian.
The subject of test [3] is NCI-H23 lung.
The subject of test [4] is UO-31 renal.
The subject of test [5] is A498 renal.
Test [6] concerns HCC-2998 colon.
In test [7] the test system is UACC-257 melanoma.
Test [8] deals with COLO 205 colon.
For test [9], the system named is SK-OV-3 ovarian.
For test [10], the system named is LOX IMVI melanoma.

Values joined by “and” are separate entries in the source; they are usually repeats but may differ in a detail not shown here. Equal entries are not always repeated.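 Grown in 96-well plates, cells were treated for 48 hours with each compound at five concentrations. Insufficient inhibition: endpoint recorded as highest concentration tested. GI50: concentration for 50% inhibition of growth. The concentration for full growth arrest is given as TGI.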

In the case of `COc1ccc(-c2cc(=O)[nH]c3c(OC)c4ccccc4c(OC)c23)cc1`, the GI50 was 0.388 µM in test [1]; 1.29 µM in test [2]; 0.817 µM in test [3]; 0.725 µM in test [4]; 0.145 µM in test [5]; 1.28 µM in test [6]. For the same compound, the GI50 in test [8] is 0.424 µM; in [9] it was 0.606 µM; in [10], 0.655 µM. The TGI was over 100 µM in [2]; over 100 µM in test [3]; over 100 µM in test [4]; over 23.1 µM in [6]; over 100 µM in test [7]; 3.52 µM in [8]. Also, the TGI in [9] and in test [10] was over 100 µM throughout.

On to `CCC[CH2][Sn]1([CH2]CCC)[O]C(=O)c2cccnc2[O]1`, for which the GI50 in test [1] is 3.11 µM; in [2] it was 2.25 µM; in [3], 1.33 µM; in [4], 7.32 µM; in [5], 2.72 µM; in test [6] it was 3.76 µM. Besides, the GI50 in test [7] was 1.55 µM; in [8] it was 1.88 µM; in test [9] it was 10 µM; in test [10], 1.81 µM. The TGI came out at 10.6 µM in [1]; 7.64 µM in test [2]; 2.99 µM in [3]; 19.9 µM in test [4]; 7.27 µM in [5]; 14.6 µM in [6]. Also, the TGI in [7] was found to be 5.04 µM; in test [8], 3.65 µM; in [9], 22.1 µM; in test [10] it was 3.51 µM.

As for `CN[C@@H](C)C(=O)N[C@H](C(=O)N1CCC[C@H]1C(=O)Nc1snnc1-c1ccccc1)C1CCCCC1`, the GI50 in test [1] is 24.6 µM; in test [2], 13.8 µM; in [3], 38.4 µM; in [4] it was 97.4 µM; in test [5] it was 19.5 µM; in test [6] it was 25.6 µM. The GI50 was 0.405 µM in [7], 21.6 µM in test [8], 0.0244 µM in test [9] and 35.3 µM in test [10]. Moreover, the TGI in test [1] was 55.8 µM; in test [2], 21.3 µM; in test [3], over 100 µM; in test [4], over 100 µM; in [5] it was 57.3 µM; in [6], 60.8 µM. Further, the TGI in [7] is 25.5 µM; in [8], 42.1 µM; in test [9], 0.723 µM; in [10], over 83.3 µM.

Consider `COc1cc(C[C@H]2c3cc(OC)c(OC)cc3CCN2C)c(Oc2cc3c(cc2OC)-c2c(OC)c(OC)cc4c2[C@H](C3)N(C)CC4)cc1OC`, for which the GI50 in [1] was 1.9 µM; in test [2], 17 µM; in test [3] it was 17.8 µM; in test [4] it was 9.73 µM; in [6], 4.9 µM; in test [7], 1.8 µM. Further, the GI50 in [8] was 2.17 µM; in test [9], 15.1 µM and 21.1 µM; in test [10], 9.21 µM. Further, the TGI in test [1] is 4.36 µM and 3.48 µM; in test [2], 18.5 µM and 35 µM; in test [3], 30.2 µM and 36.2 µM; in test [4], 16.8 µM and 22.6 µM; in test [5] it was 25.1 µM and 21.2 µM; in [6], 15.1 µM and 14.4 µM. Moreover, the TGI in test [7] was 8.76 µM and 3.37 µM; in test [8] it was 12.6 µM and 8.09 µM; in [9], 40 µM and 36.2 µM; in test [10], 14.7 µM and 24.3 µM.

With `COc1ccc(-c2cn(-c3cc(OC)c(OC)c(OC)c3)c(SCc3ccccc3)n2)cc1OC`, the GI50 in test [1] was over 100 µM; in test [2], over 100 µM; in [3] it was over 100 µM; in [4], 45.5 µM; in [5], over 100 µM; in test [6], 84.7 µM. Moreover, the GI50 in test [7], in [8], in [9] and in test [10] was over 100 µM throughout. Moreover, the TGI in test [1], in test [2], in test [3], in test [4], in test [5] and in test [6] was over 100 µM throughout. For the same compound, the TGI in test [7], in test [8], in [9] and in test [10] was over 100 µM in each case.

Take `COc1ccc(-c2c[nH]c(C(=O)O)c2-c2cc(OC)c(OC)c(OC)c2)cc1`: the GI50 is 3.65 µM in [1]; 5.44 µM in test [2]; 7.77 µM in test [3]; 5.02 µM in test [4]; 1.56 µM in test [5]; 7.53 µM in [6]. Moreover, the GI50 in test [7] is over 100 µM; in test [8], 3.31 µM; in test [9], 5.82 µM; in test [10], 6.69 µM. Moreover, the TGI in [1] was over 100 µM; in [2], over 100 µM; in [3] it was over 100 µM; in test [4], over 100 µM; in test [5] it was 6.67 µM; in test [6], over 100 µM. Moreover, the TGI in test [7] was over 100 µM; in test [8], 17 µM; in test [9], over 100 µM; in [10] it was over 100 µM.

Consider `COc1cc2ccc(/C=C\[N+](=O)[O-])cc2cc1OC`, for which the TGI stood at 7.41 µM in test [1]; 9.72 µM in test [2]; 6.98 µM in [3]; 3.36 µM in test [4]; 29.1 µM in test [5]; 13.6 µM in test [6]. Further, the TGI is over 22.9 µM in [7], 15.9 µM in test [8], 28.4 µM in test [9] and 3.42 µM in test [10].

As to `CN(C)CCN1C(=O)c2ccccc2N(C)c2ccccc21`, the GI50 in [1], in test [2], in [3], in test [4], in test [5] and in test [6] was over 100 µM each time. Besides, the GI50 in test [7], in test [8], in [9] and in test [10] was over 100 µM throughout. Besides, the TGI in [1], in test [2], in test [3], in test [4], in [5] and in test [6] was over 100 µM in each case. Also, the TGI in test [7], in [8], in test [9] and in test [10] was over 100 µM in each case.

Take `COc1ccc(-c2nc(-c3nc4ccc(OC)cc4[nH]3)c3ccccn23)cc1`: the GI50 in test [1] was 3.74 µM; in test [2], 2.35 µM; in [3] it was 12.7 µM; in test [4] it was 2.47 µM; in test [5], 4.28 µM; in test [6] it was 3.96 µM. The GI50 in [7] is 4.39 µM; in test [8], 7.19 µM; in [9] it was 36.1 µM; in test [10], 4.8 µM. For the same compound, the TGI is 16 µM in test [1]; 7.6 µM in test [2]; over 100 µM in [3]; 7.93 µM in test [4]; over 100 µM in test [5]; 46.4 µM in [6]. Further, the TGI in test [7] is 26.1 µM; in test [8] it was 39.7 µM; in test [9], over 100 µM; in test [10], 26 µM.

For the compound `CCC(C)(CC(C)(C)C(=O)NCC(=O)NC(Cc1ccccc1)C(=O)NC(Cc1ccccc1)C(=O)NCC(=O)NC1CC(OC2CC(O)(C(=O)CO)Cc3c(O)c4c(c(O)c32)C(=O)c2c(OC)cccc2C4=O)OC(C)C1O)C(=O)NCC(C)O` (stereo not given), the GI50 was 120 µg/mL in [1]; 138 µg/mL in test [2]; 72.9 µg/mL in test [3]; over 150 µg/mL in [4]; over 150 µg/mL in test [5]; 116 µg/mL in test [6]. Besides, the GI50 was over 150 µg/mL in test [7], 102 µg/mL in test [8], over 150 µg/mL in [9] and 35.2 µg/mL in test [10]. Further, the TGI in test [1], in test [2], in test [3], in test [4], in test [5] and in test [6] was over 150 µg/mL each time. For the same compound, the TGI in test [7], in test [8], in [9] and in [10] was over 150 µg/mL each time.

With `COc1ccc(C(=O)c2cc(OC)c(OC)c(OC)c2)cc1OC(=O)CCl`, the GI50 was under 0.0142 µM in [1]; 0.052 µM in test [2]; 0.0653 µM in test [3]; 0.373 µM in test [4]; 2.07 µM in test [5]; 0.0393 µM in [6]. The GI50 was over 100 µM in test [7], 1.21 µM in [8], 0.163 µM in test [9] and under 0.0199 µM in test [10]. Moreover, the TGI was over 100 µM in test [2]; over 100 µM in test [3]; over 100 µM in test [4]; 7.01 µM in test [5]; over 100 µM in test [6]; over 100 µM in test [7]. For the same compound, the TGI in test [8] was 15.6 µM; in test [9] it was over 100 µM; in test [10], over 100 µM.
